Usually Emax stands for the greatest response seen or fitted, relative to the assay's reference.

34 compounds from patent publication US20210300900A1, “OGA INHIBITOR COMPOUNDS” (Janssen Pharmaceutica NV, priority 2018, published 2021) can be followed below.

Some results are limits rather than exact numbers.

This assay addresses T1, recombinant human Meningioma Expressed Antigen 5 (MGEA5), also referred to as O-GcNAcase (OGA) (Homo sapiens, UniProt O60502).
T1 construct: Full length OGA enzyme was purchased at OnGene (cat #TP322411); purchased OnGene (so in the source)
T1 sequence (O60502 1-916): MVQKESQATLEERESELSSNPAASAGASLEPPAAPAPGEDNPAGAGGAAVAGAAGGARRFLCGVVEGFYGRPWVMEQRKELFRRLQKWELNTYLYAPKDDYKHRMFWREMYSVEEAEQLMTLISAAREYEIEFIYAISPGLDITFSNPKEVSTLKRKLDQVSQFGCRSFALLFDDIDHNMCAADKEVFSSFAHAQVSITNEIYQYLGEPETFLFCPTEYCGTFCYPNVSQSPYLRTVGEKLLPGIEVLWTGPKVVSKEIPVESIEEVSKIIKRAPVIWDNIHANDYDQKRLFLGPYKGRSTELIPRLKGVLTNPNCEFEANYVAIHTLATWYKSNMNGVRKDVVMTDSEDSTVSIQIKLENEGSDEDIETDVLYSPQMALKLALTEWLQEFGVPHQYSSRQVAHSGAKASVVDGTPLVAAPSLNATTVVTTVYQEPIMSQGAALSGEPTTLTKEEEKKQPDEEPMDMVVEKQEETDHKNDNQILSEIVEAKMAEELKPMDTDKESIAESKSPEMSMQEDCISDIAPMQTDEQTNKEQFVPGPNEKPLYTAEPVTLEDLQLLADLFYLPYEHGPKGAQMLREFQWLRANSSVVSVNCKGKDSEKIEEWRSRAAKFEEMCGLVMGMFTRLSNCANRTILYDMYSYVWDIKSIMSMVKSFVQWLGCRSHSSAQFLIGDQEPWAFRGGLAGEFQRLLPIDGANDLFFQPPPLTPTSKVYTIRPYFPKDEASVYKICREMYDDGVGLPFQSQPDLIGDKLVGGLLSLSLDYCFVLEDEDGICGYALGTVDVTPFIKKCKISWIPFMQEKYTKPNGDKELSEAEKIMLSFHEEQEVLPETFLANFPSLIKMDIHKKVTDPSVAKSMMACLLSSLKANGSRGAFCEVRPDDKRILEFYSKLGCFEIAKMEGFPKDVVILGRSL
In words: OGA biochemical assay (inhibition of FM-GlcNAc hydrolysis, fluorescence). The conditions noted are these: FM-GlcNAc substrate; for Emax: read-out: Enzymatic Emax (%); for IC50: read-out: Enzymatic hOGA, pIC50 (converted). An excerpt: The assay is based on the inhibition of the hydrolysis of fluorescein mono-β-D-N-Acetyl-Glucosamine (FM-GlcNAc) (Mariappa et al. 2015, Biochem J 470:255) by the recombinant human Meningioma Expressed Antigen 5 (MGEA5), also referred to as O-GcNAcase (OGA). The hydrolysis FM-GlcNAc (Marker Gene technologies, cat #M1485) results in the formation of B-D-N-glucosamineacetate and fluorescein. The fluorescence of the latter can be measured at excitation wavelength 485 nm and emission wavelength 538 nm. An increase in enzyme activity results in an increase in fluorescence signal. Full length OGA enzyme was purchased at OnGene (cat #TP322411). The enzyme was stored in 25 mM Tris.HCl, pH 7.3, 100 mM glycine, 10% glycerol at −20° C. Thiamet G and GlcNAcStatin were tested as reference compounds (Yuzwa et al. 2008 Nature Chemical Biology 4:483; Yuzwa et al. 2012 Nature Chemical Biology 8:393). The assay was performed in 200 mM Citrate/phosphate buffer supplemented with 0.005% Tween-20. 35.6 g Na2HPO4 2H2O (Sigma, #C0759) were dissolved in 1 L water to obtain a 200 mM solution. 19.2 g citric acid (Merck, #1.06580) was dissolved in 1 L water to obtain a 100 mM solution. pH of the sodiumphosphate solution was adjusted with the citric acid solution to 7.2. The buffer to stop the reaction consists of a 500 mM Carbonate buffer, pH 11.0. 734 mg FM-GlcNAc were dissolved in 5.48 mL DMSO to obtain a 250 mM solution and was stored at −20° C. OGA was used at a 2 nM concentration and FM-GlcNAc at a 100 uM final concentration. Dilutions were prepared in assay buffer.
50 nl of a compound dissolved in DMSO was dispensed on Black Proxiplate TM 384 Plus Assay plates (Perkin Elmer, #6008269) and 3 μl fl-OGA enzyme mix added subsequently. Plates were pre-incubated for 60 min at room temperature and then 2 μl FM-GlcNAc substrate mix added. […] Plates were briefly centrifuged for 1 min at 1000 rpm and incubate at room temperature for 6 h. To stop the reaction 5 μl STOP buffer were added and plates centrifuge again 1 min at 1000 rpm. Fluorescence was quantified in the Thermo Scientific Fluoroskan Ascent or the PerkinElmer EnVision with excitation wavelength 485 nm and emission wavelength 538 nm.
For analysis a best-fit curve is fitted by a minimum sum of squares method. From this an IC50 value and Hill coefficient was obtained. High control (no inhibitor) and low control (saturating concentrations of standard inhibitor) were used to define the minimum and maximum values.

Regarding `CCOc1cc(C(C)N2CCC[C@H](Cc3cc(C)nc(C)c3)C2)n(C)n1` (mixture of isomers) [Product 17], the Emax is 96% and the IC50 is 245 nM.

For the compound `CCOc1cc(C(C)N2CCC[C@H](Cc3cc(C)nc(C)c3)C2)nn1C` (mixture of isomers) [Product 18], the maximal effect (Emax) amounted to 95% and the IC50 is 575 nM.

For the compound `CCOc1nc(C(C)N2CCC[C@H](Cc3cc(C)nc(C)c3)C2)cn1C` (mixture of isomers) [Product 24], the Emax worked out at 84% and the IC50 was 2000 nM.

For `COc1cc(C(C)N2CCC[C@H](Cc3cc(C)nc(C)c3)C2)on1` (mixture of isomers) [Product 29], the maximal effect (Emax) was 86% and the IC50 was 1260 nM.

With `CC(=O)Nc1cc(C(C)N2CCC[C@H](Cc3cc(C)nc(C)c3)C2)cnc1C` (mixture of isomers) [Product 33], the Emax turned out to be 99% and the IC50 is 234 nM.

`COc1ncc(C(C)N2CCC[C@H](Cc3cc(C)nc(C)c3)C2)cc1F` (mixture of isomers) [Product 45]: the maximal response (Emax) came out at 92% and the IC50 was 955 nM.

Take `CCOc1cccc(C(C)N2CCC[C@H](Cc3cc(C)nc(C)c3)C2)n1` (mixture of isomers) [Product 49]: the maximal effect (Emax) was determined as 98% and the IC50 was 219 nM.

In the case of `COc1ccc(C(C)N2CCC[C@H](Cc3cc(C)nc(C)c3)C2)cn1` (mixture of isomers) [Product 52], the Emax was 98% and the IC50 is 229 nM.

In the case of `COc1cc(C(C)N2CCC[C@H](Cc3cc(C)nc(C)c3)C2)ccn1` (mixture of isomers) [Product 53], the Emax turned out to be 99% and the IC50 was 282 nM.

As for `Cc1cc(C[C@H]2CCCN(C(C)c3cccc(C(F)(F)F)n3)C2)cc(C)n1` (mixture of isomers) [Product 61], the Emax amounted to 84% and the IC50 is 2290 nM.

`COc1ncc(C(C)N2CCC[C@H](Cc3cc(C)nc(C)c3)C2)cn1` (mixture of isomers) [Product 65]: the Emax worked out at 93% and the IC50 was 933 nM.

`COc1cccc(C(C)N2CCC[C@H](Cc3cc(OC)nc(C(F)(F)F)c3)C2)n1` (mixture of isomers) [Product 78]: the Emax turned out to be 101% and the IC50 is 355 nM.

Regarding `COc1ccc(F)c(C(C)N2CC[C@@H](Cc3cc(C)nc(C)c3)C2)n1` (mixture of isomers) [Product 98], the maximal response (Emax) turned out to be 92% and the IC50 is 1120 nM.

Turning to `COc1cc(C(C)N2CC[C@@H](Cc3cc(C)nc(C)c3)C2)c(F)cn1` (mixture of isomers) [Product 99], the maximum response (Emax) was 91% and the IC50 is 646 nM.

As for `CNC(=O)c1cc(C(C)N2CC[C@H](Cc3cc(C)nc(OC)c3)C2)n[nH]1` (mixture of isomers) [Product 101], the maximal response (Emax) turned out to be 75% and the IC50 is 3160 nM.

As to `COc1cc(C(C)N2CC[C@@H](Cc3cc(C)nc(OC)c3)C2)c(F)cn1` (mixture of isomers) [Product 102], the maximal response (Emax) was determined as 85% and the IC50 is 1700 nM.

Consider `CNC(=O)c1cncc(C(C)N2CC[C@H](Cc3cc(C)nc(OC)c3)C2)c1` (mixture of isomers) [Product 103], for which the maximal response (Emax) is 85% and the IC50 was 1660 nM.

In the case of `CC(=O)Nc1cc(C(C)N2CC[C@H](Oc3cc(C)nc(C)c3)C2)n[nH]1` (mixture of isomers) [Product 116], the maximal response (Emax) was 57% and the IC50 is 8320 nM.

In the case of `CCOc1cc(C(C)N2CC[C@H](Cc3cc(C)nc(C(F)(F)F)c3)C2)n[nH]1` (mixture of isomers) [Product 120], the maximal effect (Emax) worked out at 75% and the IC50 is 4170 nM.

On to `COc1cccc(C(C)N2CC[C@H](Cc3cc(C)nc(C(F)(F)F)c3)C2)n1` (mixture of isomers) [Product 121], for which the Emax was 96% and the IC50 was 741 nM.

Regarding `COc1cccc(C(C)N2CC[C@H](Cc3cc(OC)nc(C(F)(F)F)c3)C2)n1` (mixture of isomers) [Product 123], the maximal response (Emax) was 86% and the IC50 was 2820 nM.

`COc1cc(C[C@H]2CCN(C(C)c3cccc(OC)n3)C2)ccn1` (mixture of isomers) [Product 124]: the Emax amounted to 51% and the IC50 was 8710 nM.

With `CCOc1cc(C[C@H]2CCN(C(C)c3cccc(OC)n3)C2)ccn1` (mixture of isomers) [Product 125], the maximum response (Emax) is 76% and the IC50 was 4170 nM.

On to `COc1cccc(C(C)N2CC[C@H](Cc3ccnc(OC(C)C)c3)C2)n1` (mixture of isomers) [Product 126], for which the maximum response (Emax) amounted to 56% and the IC50 was 9550 nM.

As to `COc1cccc(C(C)N2CC[C@H](Cc3ccnc(C(F)(F)F)c3)C2)n1` (mixture of isomers) [Product 127], the maximum response (Emax) was 60% and the IC50 is 7240 nM.

With `COc1cc(C[C@H]2CCN(C(C)c3cc(NC(C)=O)[nH]n3)C2)cc(C)n1` (mixture of isomers) [Product 128], the Emax stood at 94% and the IC50 is 575 nM.

In the case of `COc1cc(C[C@H]2CCN(C(C)c3cccc(OC)n3)C2)cc(C)n1` (mixture of isomers) [Product 129], the Emax turned out to be 75% and the IC50 is 4370 nM.

As to `COc1cc(C[C@@H]2CCN(C(C)c3cc(NC(C)=O)[nH]n3)C2)cc(C)n1` (mixture of isomers) [Product 131], the maximal effect (Emax) stood at 97% and the IC50 was 380 nM.

As to `COCc1cc(C(C)N2CC[C@@H](Cc3cc(C)nc(OC)c3)C2)nn1C` (mixture of isomers) [Product 132], the Emax was determined as 59% and the IC50 was 7760 nM.

On to `CCOc1cnc(C(C)N2CC[C@@H](Cc3cc(C)nc(OC)c3)C2)o1` (mixture of isomers) [Product 133], for which the Emax worked out at 98% and the IC50 is 759 nM.

For `CCOc1cc(C(C)N2CC[C@H](Cc3cc(C)nc(C)c3)C2)n[nH]1` (mixture of isomers) [Product 139], the Emax was 73.3% and the IC50 was 3980 nM.

In the case of `COc1cccc(C(C)N2CC[C@H](Cc3cccnc3OC)C2)n1` (mixture of isomers) [Product 140], the Emax came to 29.3% and the IC50 is > 10000 nM.

For the compound `COc1cccc(C(C)N2CC[C@H](Cc3cncc(C(F)(F)F)c3)C2)n1` (mixture of isomers) [Product 141], the Emax came to 35.6% and the IC50 was > 10000 nM.

Turning to `COc1cccc(C(C)N2CC[C@H](Cc3ccc(C(F)(F)F)nc3)C2)n1` (mixture of isomers) [Product 142], the Emax is 30.5% and the IC50 is > 10000 nM.
